# Results taken from patent publication US7572606B1 (Nereus Pharmaceuticals, Inc., priority 2005, dated 2009).
# Columns and labels:
# Format in all cases: cell-based, human
# A498 = experiment: NCI 60 cell line screen, sulforhodamine B, 48 h
# Experimental: (§1) A detailed description of the screening procedure can be found at hypertext transfer protocol (http://) “dtp.nci.nih.gov/branches/btb/ivclsp.html.”
# (§2) In brief, each of the 60 human tumor cell lines were grown in RPMI 1640 medium, supplemented with 5% fetal bovine serum and 2 mM L-glutamine. Cells were plated at their appropriate density in 96-well microtiter plates and incubated at 37° C., 5% CO2, 95% air and 100% relative humidity. […] Cells were incubated for an additional 48 hours and a sulforhodamine B protein assay was used to estimate cell viability or growth.
# COLO 205 = experiment: NCI 60 cell line screen, sulforhodamine B, 48 h; conditions: COLO 205, Colon Cancer
# Experimental: as §1, §2
# RPMI-8226 = experiment: NCI 60 cell line screen, sulforhodamine B, 48 h
# Experimental: as §1, §2
# RXF393 = experiment: NCI 60 cell line screen, sulforhodamine B, 48 h; conditions: RXF393, Renal Cancer
# Experimental: as §1, §2
# SK-OV-3 = experiment: NCI 60 cell line screen, sulforhodamine B, 48 h; conditions: SK-OV-3, Ovarian Cancer
# Experimental: as §1, §2
# SNB-19 = experiment: NCI 60 cell line screen, sulforhodamine B, 48 h
# Experimental: as §1, §2
# T86-0 = experiment: NCI 60 cell line screen, sulforhodamine B, 48 h
# Experimental: as §1, §2
# [1] = test system: PARP and Pro-Caspase 3 in PC-3 cells; experiment: PARP and Pro-Caspase 3 cleavage, western blot; conditions: 100 nM for 0, 8 or 24 hours
# Experimental: Total protein lysates were made and 20 μg of the lysates were then resolved under reducing/denaturing conditions and blotted onto nitrocellulose. The blots were then probed with anti-PARP or anti-caspase 3 antibodies followed by stripping and reprobing with an anti-actin antibody.
smiles,measurement,setting,value
"C[C@@]12OC(=O)[C@]1([C@@H](O)[C@@H]1C=CCCC1)NC(=O)[C@@H]2CCCl [Formula II-16, Salinosporamide A]",Log10 G150,"A498; A498, Renal Cancer",<-8.00 Molar
same,Log10 TGI,"A498; A498, Renal Cancer",<-8.00 Molar
same,CC50,"A498; Homo sapiens, A498, read-out: Log10 LC50 (converted)",0.0115 µM
same,Log10 G150,COLO 205,<-8.00 Molar
same,Log10 TGI,COLO 205,-6.19 Molar
same,CC50,"RPMI-8226; Homo sapiens, RPMI-8226, read-out: Log10 LC50 (converted)",> 100 µM
same,Log10 G150,"RPMI-8226; RPMI-8226, Leukemia",<-8.00 Molar
same,Log10 TGI,"RPMI-8226; RPMI-8226, Leukemia",<-8.00 Molar
same,Log10 G150,RXF393,<-8.00 Molar
same,Log10 TGI,RXF393,<-8.00 Molar
same,Log10 G150,SK-OV-3,<-8.00 Molar
same,Log10 TGI,SK-OV-3,<-8.00 Molar
same,CC50,"SNB-19; Homo sapiens, SNB-19, read-out: Log10 LC50 (converted)",> 100 µM
same,Log10 G150,"SNB-19; SNB-19, CNS Cancer",<-8.00 Molar
same,Log10 TGI,"SNB-19; SNB-19, CNS Cancer",>-4.00 Molar
same,CC50,"T86-0; Homo sapiens, 60 cell, read-out: Log10 LC50 (converted)",> 100 µM
same,Log10 G150,"T86-0; T86-0, Renal Cancer",<-8.00 Molar
same,Log10 TGI,"T86-0; T86-0, Renal Cancer",-5.37 Molar
same,cleavage of PARP and Pro-Caspase 3,[1],cleavage of PARP is noticeable at 24 hours
